The source of these data is EPA's ToxValDB 9.5 (doi:10.2903/j.efsa.2010.1558).

Values after ≈ are worked out from the molar mass of the structure shown.

Data set [1] has as its system Colinus virginianus. The following applies: oral.
For data set [2], the system named is Tagia sp. Conditions: acute; duration: 14 days; mortality.
The test system of data set [3] is Anas platyrhynchos. The following applies: reproductive.
The test system of data set [4] is Rattus norvegicus. The following applies: for NOAEL: reproduction developmental.
The test system of data set [5] is Typhlodromus pyri. Conditions: acute; duration: 14 days; reproduction.
The test system of data set [6] is Canidae. Conditions: chronic; duration: 1 years; oral; Dog Other; body weight.
The test system of data set [7] is Daphnia magna. The following applies: chronic/long-term; duration: 21 days; mobility.
Data set [8] deals with Pimephales promelas. The following applies: chronic/long-term; duration: 33 days; growth.
The test system of data set [9] is Lepomis macrochirus. The following applies: acute; duration: 96 hours; mortality.
The subject of data set [10] is Apis mellifera. The following applies: acute, duration: 48 hours, mortality.

For `N#CC(CCc1ccc(Cl)cc1)(Cn1cncn1)c1ccccc1` (centres undefined), the LD50 is over 2150 mg/kg-day in data set [1] (acute, mortality); over 5000 mg/kg-day in [4] (acute, oral, mortality); over 5.5 µg/piece in [10] (dermal); over 5.2 µg/piece in data set [10] (oral, unspecified). For the same molecule, in data set [1] (short-term, diet, food consumption), the NOEL is 111 mg/kg-day. Also, the LC50 in [2] is over 100 mg/kg; in [9], 0.68 µg/mL (≈ 2.02 µM). Further, the NOEC in data set [3] worked out at 21 mg/kg-day; in data set [7], 0.078 mg/L; in data set [8], 0.023 mg/L. The NOAEL (commonly the highest tested level that showed no adverse finding) in [4] (body weight) is 30 mg/kg-day; in data set [4] (reproduction), 5 mg/kg-day; in data set [6], 0.62 mg/kg-day. This molecule had an LEL in data set [5] of 63 g/ha.
